ChEMBL document CHEMBL4017512 (J Med Chem, 2017)

Experiments:
L1210 = experiment: Antiproliferative activity against mouse L1210 cells after 72 hrs by phosphatase assay; assay type: functional, cell-based; settings: L1210, 72 h
[1] = Cytotoxicity against human HCT116/VM46 cells assessed as reduction in cell viability after 72 hrs by phosphatase assay; assay type: cell-based; settings: HCT-116/VM46, 72 h
HCT-116 = experiment: Antiproliferative activity against human HCT116 cells after 72 hrs by phosphatase assay; assay type: functional, cell-based; settings: HCT-116, 72 h

| SMILES | IC50 (L1210) | IC50 (HCT-116) | IC50 [1] |
| --- | --- | --- | --- |
| CC[C@]1(NC(=O)C2CCN(C)CC2)C[C@H]2CN(CCc3c([nH]c4ccccc34)[C@@](C(=O)OC)(c3cc4c(cc3OC)N(C)[C@H]3[C@@](O)(C(=O)OC)[C@H](OC(C)=O)[C@]5(CC)C=CCN6CC[C@]43[C@@H]65)C2)C1 | 5300 nM | 4400 nM | 6600 nM |
| CC[C@]1(NC(=O)c2ccc3ccoc3c2)C[C@H]2CN(CCc3c([nH]c4ccccc34)[C@@](C(=O)OC)(c3cc4c(cc3OC)N(C)[C@H]3[C@@](O)(C(=O)OC)[C@H](OC(C)=O)[C@]5(CC)C=CCN6CC[C@]43[C@@H]65)C2)C1 | 3.3 nM | 2.2 nM | 6.5 nM |
| CC[C@]1(NC(=O)c2ccc(NC(=O)OC(C)(C)C)cc2)C[C@H]2CN(CCc3c([nH]c4ccccc34)[C@@](C(=O)OC)(c3cc4c(cc3OC)N(C)[C@H]3[C@@](O)(C(=O)OC)[C@H](OC(C)=O)[C@]5(CC)C=CCN6CC[C@]43[C@@H]65)C2)C1 | 0.3 nM | 0.3 nM | 30 nM |
| CC[C@]1(NC(=O)c2ccc(OC)c(Cl)c2)C[C@H]2CN(CCc3c([nH]c4ccccc34)[C@@](C(=O)OC)(c3cc4c(cc3OC)N(C)[C@H]3[C@@](O)(C(=O)OC)[C@H](OC(C)=O)[C@]5(CC)C=CCN6CC[C@]43[C@@H]65)C2)C1 | 3.7 nM | 5.1 nM | 8.9 nM |
| CC[C@]1(NC(=O)c2cc(C)c(OC)c(C)c2)C[C@H]2CN(CCc3c([nH]c4ccccc34)[C@@](C(=O)OC)(c3cc4c(cc3OC)N(C)[C@H]3[C@@](O)(C(=O)OC)[C@H](OC(C)=O)[C@]5(CC)C=CCN6CC[C@]43[C@@H]65)C2)C1 | 0.5 nM | 0.65 nM | 3.5 nM |
| CC[C@]1(NC(=O)c2cnc3ccccc3n2)C[C@H]2CN(CCc3c([nH]c4ccccc34)[C@@](C(=O)OC)(c3cc4c(cc3OC)N(C)[C@H]3[C@@](O)(C(=O)OC)[C@H](OC(C)=O)[C@]5(CC)C=CCN6CC[C@]43[C@@H]65)C2)C1 | 6.2 nM | 5.9 nM | 60 nM |
| CC[C@]1(NC(=O)c2ccc(C)c(OC)c2)C[C@H]2CN(CCc3c([nH]c4ccccc34)[C@@](C(=O)OC)(c3cc4c(cc3OC)N(C)[C@H]3[C@@](O)(C(=O)OC)[C@H](OC(C)=O)[C@]5(CC)C=CCN6CC[C@]43[C@@H]65)C2)C1 | 4.2 nM | 3.3 nM | 6.9 nM |
| CC[C@]1(NC(=O)c2ccc(OC(C)C)cc2)C[C@H]2CN(CCc3c([nH]c4ccccc34)[C@@](C(=O)OC)(c3cc4c(cc3OC)N(C)[C@H]3[C@@](O)(C(=O)OC)[C@H](OC(C)=O)[C@]5(CC)C=CCN6CC[C@]43[C@@H]65)C2)C1 | 0.7 nM | 0.8 nM | 6.6 nM |
| CC[C@]1(NC(=O)c2cccc(N3CCOCC3)c2)C[C@H]2CN(CCc3c([nH]c4ccccc34)[C@@](C(=O)OC)(c3cc4c(cc3OC)N(C)[C@H]3[C@@](O)(C(=O)OC)[C@H](OC(C)=O)[C@]5(CC)C=CCN6CC[C@]43[C@@H]65)C2)C1 | 4.8 nM | 2.8 nM | 30 nM |
| C=CC(=O)N[C@@]1(CC)C[C@H]2CN(CCc3c([nH]c4ccccc34)[C@@](C(=O)OC)(c3cc4c(cc3OC)N(C)[C@H]3[C@@](O)(C(=O)OC)[C@H](OC(C)=O)[C@]5(CC)C=CCN6CC[C@]43[C@@H]65)C2)C1 | 7 nM | 6 nM | 520 nM |
| CC[C@]1(NC(=O)C2CCCCC2)C[C@H]2CN(CCc3c([nH]c4ccccc34)[C@@](C(=O)OC)(c3cc4c(cc3OC)N(C)[C@H]3[C@@](O)(C(=O)OC)[C@H](OC(C)=O)[C@]5(CC)C=CCN6CC[C@]43[C@@H]65)C2)C1 | 55 nM | 70 nM | 760 nM |
| CC[C@]1(NC(=O)c2cc(C)cc(C)c2)C[C@H]2CN(CCc3c([nH]c4ccccc34)[C@@](C(=O)OC)(c3cc4c(cc3OC)N(C)[C@H]3[C@@](O)(C(=O)OC)[C@H](OC(C)=O)[C@]5(CC)C=CCN6CC[C@]43[C@@H]65)C2)C1 | 5.4 nM | 6 nM | 9.2 nM |
| CC[C@]1(NC(=O)c2ccc(OC)c(F)c2)C[C@H]2CN(CCc3c([nH]c4ccccc34)[C@@](C(=O)OC)(c3cc4c(cc3OC)N(C)[C@H]3[C@@](O)(C(=O)OC)[C@H](OC(C)=O)[C@]5(CC)C=CCN6CC[C@]43[C@@H]65)C2)C1 | 0.6 nM | 0.6 nM | 30 nM |
| CC[C@]1(NC(=O)c2ccc(OC)c(OC)c2)C[C@H]2CN(CCc3c([nH]c4ccccc34)[C@@](C(=O)OC)(c3cc4c(cc3OC)N(C)[C@H]3[C@@](O)(C(=O)OC)[C@H](OC(C)=O)[C@]5(CC)C=CCN6CC[C@]43[C@@H]65)C2)C1 | 0.06 nM | 0.07 nM | 1.4 nM |
| CC[C@]1(NS(=O)(=O)c2ccccc2)C[C@H]2CN(CCc3c([nH]c4ccccc34)[C@@](C(=O)OC)(c3cc4c(cc3OC)N(C)[C@H]3[C@@](O)(C(=O)OC)[C@H](OC(C)=O)[C@]5(CC)C=CCN6CC[C@]43[C@@H]65)C2)C1 | 45 nM | 50 nM | 680 nM |
| CC[C@]1(NC(=O)c2ccc(OC(F)(F)F)cc2)C[C@H]2CN(CCc3c([nH]c4ccc(F)cc34)[C@@](C(=O)OC)(c3cc4c(cc3OC)N(C)[C@H]3[C@@](O)(C(=O)OC)[C@H](OC(C)=O)[C@]5(CC)C=CCN6CC[C@]43[C@@H]65)C2)C1 | 0.6 nM | 0.7 nM | 1 nM |
| CC[C@]1(NC(=O)C2CCc3ccccc3C2)C[C@H]2CN(CCc3c([nH]c4ccccc34)[C@@](C(=O)OC)(c3cc4c(cc3OC)N(C)[C@H]3[C@@](O)(C(=O)OC)[C@H](OC(C)=O)[C@]5(CC)C=CCN6CC[C@]43[C@@H]65)C2)C1 (some centres not stated) | 420 nM | 580 nM | 960 nM |
| CC[C@]1(NC(=O)Cc2ccccc2)C[C@H]2CN(CCc3c([nH]c4ccccc34)[C@@](C(=O)OC)(c3cc4c(cc3OC)N(C)[C@H]3[C@@](O)(C(=O)OC)[C@H](OC(C)=O)[C@]5(CC)C=CCN6CC[C@]43[C@@H]65)C2)C1 | 55 nM | 55 nM | 550 nM |

Continued, in another order:

| IC50 (L1210) | IC50 (HCT-116) | SMILES | IC50 [1] |
| --- | --- | --- | --- |
| 35 nM | 15 nM | CC[C@]1(NC(=O)c2ccc3c(c2)CCN3C(=O)OC(C)(C)C)C[C@H]2CN(CCc3c([nH]c4ccccc34)[C@@](C(=O)OC)(c3cc4c(cc3OC)N(C)[C@H]3[C@@](O)(C(=O)OC)[C@H](OC(C)=O)[C@]5(CC)C=CCN6CC[C@]43[C@@H]65)C2)C1 | 90 nM |
| 30 nM | 20 nM | CCCCc1ccc(C(=O)N[C@@]2(CC)C[C@H]3CN(CCc4c([nH]c5ccccc45)[C@@](C(=O)OC)(c4cc5c(cc4OC)N(C)[C@H]4[C@@](O)(C(=O)OC)[C@H](OC(C)=O)[C@]6(CC)C=CCN7CC[C@]54[C@@H]76)C3)C2)cc1 | 70 nM |
| 460 nM | 450 nM | CC[C@]1(NC(=O)C2CCSCC2)C[C@H]2CN(CCc3c([nH]c4ccccc34)[C@@](C(=O)OC)(c3cc4c(cc3OC)N(C)[C@H]3[C@@](O)(C(=O)OC)[C@H](OC(C)=O)[C@]5(CC)C=CCN6CC[C@]43[C@@H]65)C2)C1 | 5200 nM |
| 4.8 nM | 5.9 nM | CC[C@]1(NC(=O)c2cccc(OC(F)(F)F)c2)C[C@H]2CN(CCc3c([nH]c4ccccc34)[C@@](C(=O)OC)(c3cc4c(cc3OC)N(C)[C@H]3[C@@](O)(C(=O)OC)[C@H](OC(C)=O)[C@]5(CC)C=CCN6CC[C@]43[C@@H]65)C2)C1 | 50 nM |
| 5.4 nM | 5.1 nM | CC[C@]1(NC(=O)c2ccc3ocnc3c2)C[C@H]2CN(CCc3c([nH]c4ccccc34)[C@@](C(=O)OC)(c3cc4c(cc3OC)N(C)[C@H]3[C@@](O)(C(=O)OC)[C@H](OC(C)=O)[C@]5(CC)C=CCN6CC[C@]43[C@@H]65)C2)C1 | 70 nM |
| 30 nM | 7.6 nM | CC[C@]1(NC(=O)c2ccc(C)c(NC(=O)c3ccccc3)c2)C[C@H]2CN(CCc3c([nH]c4ccccc34)[C@@](C(=O)OC)(c3cc4c(cc3OC)N(C)[C@H]3[C@@](O)(C(=O)OC)[C@H](OC(C)=O)[C@]5(CC)C=CCN6CC[C@]43[C@@H]65)C2)C1 | 240 nM |
| 4.3 nM | 3.3 nM | CC[C@]1(NC(=O)c2ccc(C(F)(F)F)cc2)C[C@H]2CN(CCc3c([nH]c4ccccc34)[C@@](C(=O)OC)(c3cc4c(cc3OC)N(C)[C@H]3[C@@](O)(C(=O)OC)[C@H](OC(C)=O)[C@]5(CC)C=CCN6CC[C@]43[C@@H]65)C2)C1 | 55 nM |
| 6 nM | 7.1 nM | CC[C@]1(NC(=O)c2ccc(C)c(NC(=O)OC(C)(C)C)c2)C[C@H]2CN(CCc3c([nH]c4ccccc34)[C@@](C(=O)OC)(c3cc4c(cc3OC)N(C)[C@H]3[C@@](O)(C(=O)OC)[C@H](OC(C)=O)[C@]5(CC)C=CCN6CC[C@]43[C@@H]65)C2)C1 | 90 nM |
| 1.8 nM | 0.6 nM | CC[C@]1(NC(=O)c2cncs2)C[C@H]2CN(CCc3c([nH]c4ccccc34)[C@@](C(=O)OC)(c3cc4c(cc3OC)N(C)[C@H]3[C@@](O)(C(=O)OC)[C@H](OC(C)=O)[C@]5(CC)C=CCN6CC[C@]43[C@@H]65)C2)C1 | 45 nM |
| 0.6 nM | 0.7 nM | CC[C@]1(NC(=O)c2ccc3cccnc3c2)C[C@H]2CN(CCc3c([nH]c4ccccc34)[C@@](C(=O)OC)(c3cc4c(cc3OC)N(C)[C@H]3[C@@](O)(C(=O)OC)[C@H](OC(C)=O)[C@]5(CC)C=CCN6CC[C@]43[C@@H]65)C2)C1 | 8.2 nM |
| 3.9 nM | 3.5 nM | CC[C@]1(NC(=O)c2cnco2)C[C@H]2CN(CCc3c([nH]c4ccccc34)[C@@](C(=O)OC)(c3cc4c(cc3OC)N(C)[C@H]3[C@@](O)(C(=O)OC)[C@H](OC(C)=O)[C@]5(CC)C=CCN6CC[C@]43[C@@H]65)C2)C1 | 65 nM |
